# According to patent US9890117B2, “Benzamide compounds and related methods of use” (Northwestern University, priority 2012, dated 2018):
# Target: T1, SIRT2 (Homo sapiens, UniProt Q8IXJ6)
# T1 construct: recombinant active enzymes SIRT1, SIRT2, and the catalytically active fragment of SIRT3
# T1 sequence (Q8IXJ6 1-389): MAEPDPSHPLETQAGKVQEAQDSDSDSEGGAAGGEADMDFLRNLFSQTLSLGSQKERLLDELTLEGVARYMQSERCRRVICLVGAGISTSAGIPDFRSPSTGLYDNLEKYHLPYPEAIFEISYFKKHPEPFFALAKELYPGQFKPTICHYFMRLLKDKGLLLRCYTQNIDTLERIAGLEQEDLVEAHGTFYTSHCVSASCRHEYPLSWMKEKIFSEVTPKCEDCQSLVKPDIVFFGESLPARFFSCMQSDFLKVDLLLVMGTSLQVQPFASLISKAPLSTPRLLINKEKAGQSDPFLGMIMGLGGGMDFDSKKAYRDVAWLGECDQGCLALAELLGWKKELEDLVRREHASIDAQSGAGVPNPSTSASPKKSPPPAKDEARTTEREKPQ
# Test: Fluor-de-Lys biochemical sirtuin deacetylation assay, SIRT2
# Conditions: 10 μM
row,inhibition at 10 µM,SMILES
1,34%,"CC(=O)c1ccc(C(C)(C)Oc2cccc(C(=O)Nc3ccc(Br)cc3)c2)cc1 [Compound 216At, 3-((2-(4-acetylphenyl)propan-2-yl)oxy)-N-(4-bromophenyl)benzamide]"
2,89%,"CC(=O)c1ccc(C(C)Oc2cccc(C(=O)Nc3ccc(Cl)cc3)c2)cc1 (centres unmarked) [Compound 216Av, 3-(1-(4-acetylphenyl)ethoxy)-N-(4-chlorophenyl)benzamide]"
3,62%,"CC(=O)c1ccc(C(C)Oc2cccc(C(=O)Nc3ccc(F)cc3)c2)cc1 (centres unmarked) [Compound 216Aw, 3-(1-(4-acetylphenyl)ethoxy)-N-(4-fluorophenyl)benzamide]"
4,56%,"COc1ccc(NC(=O)c2cccc(OC(C)c3ccc(C(C)=O)cc3)c2)cc1 (centres unmarked) [Compound 216Ax, 3-(1-(4-acetylphenyl)ethoxy)-N-(4-methoxyphenyl)benzamide]"
5,94%,"CC(=O)c1ccc(NC(=O)c2cccc(OC(C)c3ccc(C(C)=O)cc3)c2)cc1 (centres unmarked) [Compound 216Ay, N-(4-acetylphenyl)-3-(1-(4-acetylphenyl)ethoxy)benzamide]"
6,58%,"CC(=O)c1ccc(C(C)Oc2cccc(C(=O)Nc3ccc(CC#N)cc3)c2)cc1 (centres unmarked) [Compound 216Az, 3-(1-(4-acetylphenyl)ethoxy)-N-(4-(cyanomethyl)phenyl)benzamide]"
7,85%,"CC(=O)c1ccc(C(C)Oc2cccc(C(=O)Nc3ccc(Br)cc3)c2)cc1 (centres unmarked) [Compound 216Ba, 3-(1-(4-acetylphenyl)ethoxy)-N-(4-bromophenyl)benzamide]"
8,70%,"CC(=O)c1ccc(C(C)Oc2cccc(C(=O)Nc3ccc(S(C)(=O)=O)cc3)c2)cc1 (centres unmarked) [Compound 216Bb, 3-(1-(4-acetylphenyl)ethoxy)-N-(4-(methylsulfonyl)phenyl)benzamide]"
9,77%,"CC(=O)c1ccc(C(C)Oc2cccc(C(=O)Nc3ccc(C(F)(F)F)cc3)c2)cc1 (centres unmarked) [Compound 216Bc, 3-(1-(4-acetylphenyl)ethoxy)-N-(4-(trifluoromethyl)phenyl)benzamide]"
10,54%,"C[C@H](Oc1cccc(C(=O)Nc2ccc(C#N)cc2)c1)c1ccc(F)cc1 [Compound 216o, (S)—N-(4-cyanophenyl)-3-(1-(4-fluorophenyl)ethoxy)benzamide]"

# More lines, now with the values behind:
row,SMILES,inhibition at 10 µM
1,"CC(=O)c1ccc(C(C)(C)Oc2cccc(C(=O)Nc3ccc(C(F)(F)F)cc3)c2)cc1 [Compound 216Au, 3-((2-(4-acetylphenyl)propan-2-yl)oxy)-N-(4-(trifluoromethyl)phenyl)benzamide]",27%
2,"C[C@@H](Oc1cccc(C(=O)Nc2ccc(C#N)cc2)c1)c1ccc(F)cc1 [Compound 216l, (R)—N-(4-cyanophenyl)-3-(1-(4-fluorophenyl)ethoxy)benzamide]",88%
3,"CC(C)(Oc1cccc(C(=O)Nc2ccc(C#N)cc2)c1)c1ccc(F)cc1 [Compound 216p, N-(4-cyanophenyl)-3-((2-(4-fluorophenyl)propan-2-yl)oxy)benzamide]",55%
4,"C=CCOc1cc(OCc2ccc(C#N)cc2)cc(C(=O)Nc2ccc(C#N)cc2)c1 [Compound 216v, 3-(allyloxy)-5-((4-cyanobenzyl)oxy)-N-(4-cyanophenyl)benzamide]",11%
5,"N#Cc1ccc(COc2cc(OC[C@@H](O)CO)cc(C(=O)Nc3ccc(C#N)cc3)c2)cc1 [Compound 216x, (S)-3-((4-cyanobenzyl)oxy)-N-(4-cyanophenyl)-5-(2,3-dihydroxypropoxy)benzamide]",25%
6,"CCN(CC)CCOc1cc(OCc2ccc(C#N)cc2)cc(C(=O)Nc2ccc(C#N)cc2)c1 [Compound 216y, 3-((4-cyanobenzyl)oxy)-N-(4-cyanophenyl)-5-(2-(diethylamino)ethoxy)benzamide]",19%
7,"N#Cc1ccc(NC(=O)c2cccc(NCc3ccc(F)cc3)c2)nc1 [Compound 221b, N-(5-cyanopyridin-2-yl)-3-((4-fluorobenzyl)amino)benzamide]",28%
